Results from US8440830B2, “Tetrahydro-fused pyridines as histone deacetylase inhibitors” (4SC AG, priority 2007, dated 2013).
Read-outs that look alike come from different tables or passages of the source.

Tests used:
[1] = test system: histone H3 hyperacetylation in HeLa cervical carcinoma cells; assay: Cellular histone H3 hyperacetylation assay; type: cell-based; conditions: Homo sapiens, 24 h treatment
Source text: To assess the cellular efficacy of a histone deacetylase inhibitor in vitro, an assay is set up in black clear-bottom 96-well plates and optimized for use on the Cellomics “ArrayScan II” platform for a quantitative calculation of histone acetylation. The protocol uses a polyclonal rabbit antibody, specifically binding to acetylated lysine 1-20 (including K 9 and K14) of human histone H3 on fixed cells with an Alexa Fluor 488 labeled goat anti rabbit-IgG used for counterstaining 5×10^3 HeLa cervical carcinoma cells/well (ATCC CCL-2) in 200 μl Dulbecco's modified Eagle's medium (DMEM) containing 10% fetal calf serum are seeded at day 1 in Packard view plates and incubated for 24 h under standard cell culture conditions. On day 2, 1 μl test compound (200× final concentration) is added and incubation continued for further 24 h. On day 3, the culture medium is discarded and attached cells fixed for 15 min at room temperature by addition of 100 μl fixation buffer (3.7% v:v formaldehyde in phosphate buffered saline/PBS). After discarding the fixation buffer and one wash with blocking solution (1% BSA, 0.3% Tween 20 in PBS), cells are permeabilized at room temperature by addition of 100 μl /well permeabilization buffer (30.8 mM NaCl, 0.54 mM Na2HPO4, 0.31 mM KH2PO4, 0.1% v:v Triton X-100) for 15 min at room temperature. After discarding the permeabilization buffer and washing twice with 100 μl/well blocking solution at room temperature, the 1st antibody (anti-K1-20 histone H3 antibody, Calbiochem No. 382158) in blocking solution (50 μl/well) is added. After incubation for 1 h at room temperature, the wells are washed twice at room temperature with 100 μl/well blocking solution before addition of the 2nd antibody (goat-anti-rabbit Alexa Fluor 488; MoBiTec No. A -11008) in blocking solution (50 μl well). After further incubation for 1 h at room temperature, wells are washed twice with 100 μl/well blocking solution at room temperature. Finally, 100 μl/well PBS are added and image analysis performed on the Cellomics “ArrayScan II” platform. For EC50 determination, the percentage of positive cells showing nuclear fluorescence is determined and EC50 calculation done from concentration-effect curves by means of non-linear regression. For calibration, a positive (reference HDAC inhibitors like SAHA or NVP LBH-589) and a negative control were included.

A549 NSCLC cells = assay: Cellular cytotoxicity assay (Alamar Blue), A549; type: cell-based; conditions: Homo sapiens, 72 h, upper end given as ≧100, read-out: IC50 (μM), cytotoxicity towards A549 NSCLC cells
In short: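 Resazurin-to-resorufin fluorescence (ex 544, em 590 nm, after 4 h) gave viability as % of untreated cells following 72 h compound exposure at 37 °C. Compounds were added in semi-logarithmic dilutions 24 h post-seeding, quadruplicate wells; IC50 fitted by non-linear regression of concentration-effect curves.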

[2] = read-out: EC50, induction of histone H3 hyperacetylation
[3] = read-out: −lg EC50, induction of histone H3 hyperacetylation

Work on `Nc1ccccc1NC(=O)c1nc2c(s1)CN(C(=O)NCc1ccccc1)CC2` [Example 4, N^2-(2-aminophenyl)-N5-benzyl-6,7-dihydro[1,3]thiazolo[5,4-c]pyridine-2,5(4H)-dicarboxamide] yielded an EC50 [1, 2] of 150 to 15000 nM, an EC50 [1, 3] of 251 to 15800 nM and an IC50 (A549 NSCLC cells) of no less than 0.2 µM.

In the case of `Nc1ccccc1NC(=O)c1nc2c(s1)CN(C(=O)Nc1ccc3c(c1)OCO3)CC2` [Example 7, N^2-(2-aminophenyl)-N5-1,3-benzodioxol-5-yl-6,7-dihydro[1,3]thiazolo[5,4-c]pyridine-2,5(4H)-dicarboxamide], the EC50 [1, 2] is reported as 150 to 15000 nM, the EC50 [1, 3] is reported as 251 to 15800 nM and the IC50 (A549 NSCLC cells) is reported as no less than 0.2 µM.

In the case of `Cc1ccc(NC(=O)N2CCc3nc(C(=O)Nc4ccccc4N)sc3C2)cc1` [Example 13, N^2-(2-aminophenyl)-N^5-(4-methylphenyl)-6,7-dihydro[1,3]thiazolo[5,4-c]-pyridine-2,5(4H)-dicarboxamide], the EC50 [1, 2] is reported as 150 to 15000 nM, the EC50 [1, 3] is reported as 251 to 15800 nM and the IC50 (A549 NSCLC cells) is reported as no less than 0.2 µM.

For `Nc1ccccc1NC(=O)c1nc2c(s1)CN(C(=O)NCc1cccnc1)CC2` [Example 14, N^2-(2-aminophenyl)-N^5-(pyridin-3-ylmethyl)-6,7-dihydro[1,3]thiazolo[5,4-c]pyridine-2,5(4H)-dicarboxamide], the EC50 [1, 2] was 150 to 15000 nM, the EC50 [1, 3] was 251 to 15800 nM and the IC50 (A549 NSCLC cells) was no less than 0.2 µM.

`Nc1ccccc1NC(=O)c1nc2c(s1)CN(C(=O)Nc1ccncc1)CC2` [Example 15, N^2-(2-aminophenyl)-N^5-pyridin-4-yl-6,7-dihydro[1,3]thiazolo[5,4-c]pyridine-2,5(4H)-dicarboxamide] was tested, and the EC50 [1, 2] was 150 to 15000 nM, the EC50 [1, 3] was 251 to 15800 nM and the IC50 (A549 NSCLC cells) was no less than 0.2 µM.

`COCCNC(=O)N1CCc2nc(C(=O)Nc3ccccc3N)sc2C1` [Example 16, N^2-(2-aminophenyl)-N^5-(2-methoxyethyl)-6,7-dihydro[1,3]thiazolo[5,4-c]-pyridine-2,5(4H)-dicarboxamide] was tested, and the EC50 [1, 2] was 150 to 15000 nM, the EC50 [1, 3] was 251 to 15800 nM and the IC50 (A549 NSCLC cells) was no less than 0.2 µM.

In the case of `CN(C)c1cccc(NC(=O)N2CCc3nc(C(=O)Nc4ccccc4N)sc3C2)c1` [Example 18, N^2-(2-aminophenyl)-N^5-[3-(dimethylantino)phenyl]-6,7-dihydro[1,3]thiazolo[5,4-c]pyridine-2,5(4H)-dicarboxamide], the EC50 [1, 2] is reported as 150 to 15000 nM, the EC50 [1, 3] is reported as 251 to 15800 nM and the IC50 (A549 NSCLC cells) is reported as no less than 0.2 µM.

With `COc1ccc(NC(=O)N2CCc3nc(C(=O)Nc4ccccc4N)sc3C2)cc1OC` [Example 19, N^2-(2-aminophenyl)-N^5-(3,4-dimethoxyphenyl)-6,7-dihydro[1,3]thiazolo[5,4-c]pyridine-2,5(4H)-dicarboxamide] the EC50 [1, 2] was 150 to 15000 nM, the EC50 [1, 3] was 251 to 15800 nM and the IC50 (A549 NSCLC cells) was no less than 0.2 µM.

`CN(C)c1ccc(NC(=O)N2CCc3nc(C(=O)Nc4ccccc4N)sc3C2)cn1` [Example 36, N^2-(2-aminophenyl)-N^5-[6-(dimethylamino)pyridin-3-yl]-6,7-dihydro[1,3]thiazolo[5,4-c]pyridine-2,5(4H)-dicarboxamide] gave an EC50 [1, 2] of 150 to 15000 nM, an EC50 [1, 3] of 251 to 15800 nM and an IC50 (A549 NSCLC cells) of no less than 0.2 µM.

Compound `CN1CCN(c2ccc(NC(=O)N3CCc4nc(C(=O)Nc5ccccc5N)sc4C3)cn2)CC1` [Example 37, N^2-(2-aminophenyl)-N^5-[6-(4-methylpiperazin-1-yl)pyridin-3-yl]-6,7-dihydro[1,3]thiazolo[5,4-c]pyridine-2,5(4H)-dicarboxamide] has an EC50 [1, 2] of 150 to 15000 nM, an EC50 [1, 3] of 251 to 15800 nM and an IC50 (A549 NSCLC cells) of no less than 0.2 µM.

`Nc1ccccc1NC(=O)c1nc2c(s1)CN(C(=O)Nc1cccnc1)CC2` [Example 39, N^2-(2-aminophenyl)-N^5-pyridin-3-yl-6,7-dihydro[1,3]thiazolo[5,4-c]pyridine-2,5(4H)-dicarboxamide] gave an EC50 [1, 2] of 150 to 15000 nM, an EC50 [1, 3] of 251 to 15800 nM and an IC50 (A549 NSCLC cells) of no less than 0.2 µM.

`CC(=O)N1CCc2nc(C(=O)Nc3ccccc3N)sc2C1` [Example 92, 5-acetyl-N-(2-aminophenyl)-4,5,6,7-tetrahydro[1,3]thiazolo[5,4-c]pyridine-2-carboxamide] gave an EC50 [1, 2] of 150 to 15000 nM, an EC50 [1, 3] of 251 to 15800 nM and an IC50 (A549 NSCLC cells) of no less than 0.2 µM.

`Cc1ccc(C(=O)N2CCc3nc(C(=O)Nc4ccccc4N)sc3C2)cn1` [Example 96, N-(2-aminophenyl)-5-[(6-methylpyridin-3-yl)carbonyl]-4,5,6,7-tetrahydro-[1,3]thiazolo[5,4-c]pyridine-2-carboxamide] was tested, and the EC50 [1, 2] was 150 to 15000 nM, the EC50 [1, 3] was 251 to 15800 nM and the IC50 (A549 NSCLC cells) was no less than 0.2 µM.

`N#CN=C(Nc1ccccc1)N1CCc2nc(C(=O)Nc3ccccc3N)sc2C1` [Example 116, N-(2-aminophenyl)-5-[anilino(cyanoimino)methyl]-4,5,6,7-tetrahydro[1,3]thiazolo[5,4-c]pyridine-2-carboxamide] was tested, and the EC50 [1, 2] was 150 to 15000 nM, the EC50 [1, 3] was 251 to 15800 nM and the IC50 (A549 NSCLC cells) was no less than 0.2 µM.

`COc1ccc(NC(=NC#N)N2CCc3nc(C(=O)Nc4ccccc4N)sc3C2)cc1` [Example 117, N-(2-aminophenyl)-5-{(cyanoimino)[(4-methoxyphenyl)amino]methyl}-4,5,6,7-tetrahydro[1,3]thiazolo[5,4-c]pyridine-2-carboxamide] gave an EC50 [1, 2] of 150 to 15000 nM, an EC50 [1, 3] of 251 to 15800 nM and an IC50 (A549 NSCLC cells) of no less than 0.2 µM.

Work on `COc1ccc(NC(=NC#N)N2CCc3nc(C(=O)Nc4ccccc4N)sc3C2)cc1OC` [Example 118, N-(2-aminophenyl)-5-{(cyanoimino)[(3,4-dimethoxyphenyl)amino]methyl}-4,5,6,7-tetrahydro[1,3]thiazolo[5,4-c]pyridine-2-carboxamide] yielded an EC50 [1, 2] of 150 to 15000 nM, an EC50 [1, 3] of 251 to 15800 nM and an IC50 (A549 NSCLC cells) of no less than 0.2 µM.

`N#CN=C(NCc1ccccc1)N1CCc2nc(C(=O)Nc3ccccc3N)sc2C1` [Example 122, N-(2-aminophenyl)-5-[(benzylamino)(cyanoimino)methyl]-4,5,6,7-tetrahydro[1,3]thiazolo[5,4-c]pyridine-2-carboxamide] showed an EC50 [1, 2] of 150 to 15000 nM, an EC50 [1, 3] of 251 to 15800 nM and an IC50 (A549 NSCLC cells) of no less than 0.2 µM.

`Nc1ccccc1NC(=O)c1nc2c(s1)CN(S(=O)(=O)c1ccc(-c3ccccc3)cc1)CC2` [Example 152, N-(2-aminophenyl)-5-(biphenyl-4-ylsulfonyl)-4,5,6,7-tetrahydro[1,3]thiazolo[5,4-c]pyridine-2-carboxamide] gave an EC50 [1, 2] of 150 to 15000 nM, an EC50 [1, 3] of 251 to 15800 nM and an IC50 (A549 NSCLC cells) of no less than 0.2 µM.

`CS(=O)(=O)N1CCc2nc(C(=O)Nc3ccccc3N)sc2C1` [Example 154, N-(2-aminophenyl)-5-(methylsulfonyl)-4,5,6,7-tetrahydro[1,3]thiazolo[5,4-c]pyridine-2-carboxamide] showed an EC50 [1, 2] of 150 to 15000 nM, an EC50 [1, 3] of 251 to 15800 nM and an IC50 (A549 NSCLC cells) of no less than 0.2 µM.

`COc1cccc(S(=O)(=O)N2CCc3nc(C(=O)Nc4ccccc4N)sc3C2)c1` [Example 160, N-(2-aminophenyl)-5-[(3-methoxyphenyl)sulfonyl]-4,5,6,7-tetrahydro[1,3]thiazolo[5,4-c]pyridine-2-carboxamide] showed an EC50 [1, 2] of 150 to 15000 nM, an EC50 [1, 3] of 251 to 15800 nM and an IC50 (A549 NSCLC cells) of no less than 0.2 µM.

Compound `Cc1ccc(OCC(=O)N2CCc3nc(C(=O)Nc4ccccc4N)sc3C2)cc1` [Example 173, N-(2-aminophenyl)-5-[(4-methylphenoxy)acetyl]-4,5,6,7-tetrahydro[1,3]thiazolo[5,4-c]pyridine-2-carboxamide] has an EC50 [1, 2] of 150 to 15000 nM, an EC50 [1, 3] of 251 to 15800 nM and an IC50 (A549 NSCLC cells) of no less than 0.2 µM.

`COc1ccc(OCC(=O)N2CCc3nc(C(=O)Nc4ccccc4N)sc3C2)cc1` [Example 174, N-(2-aminophenyl)-5-[(4-methoxyphenoxy)acetyl]-4,5,6,7-tetrahydro[1,3]-thiazolo[5,4-c]pyridine-2-carboxamide] was tested, and the EC50 [1, 2] was 150 to 15000 nM, the EC50 [1, 3] was 251 to 15800 nM and the IC50 (A549 NSCLC cells) was no less than 0.2 µM.

With `Nc1ccccc1NC(=O)c1nc2c(s1)CN(C(=O)COc1ccc(-c3ccccc3)cc1)CC2` [Example 176, N-(2-aminophenyl)-5-[(biphenyl-4-yloxy)acetyl]-4,5,6,7-tetrahydro[1,3]thiazolo[5,4-c]pyridine-2-carboxamide] the EC50 [1, 2] was 150 to 15000 nM, the EC50 [1, 3] was 251 to 15800 nM and the IC50 (A549 NSCLC cells) was no less than 0.2 µM.

For `COC(=O)N1CCc2nc(C(=O)Nc3ccccc3N)sc2C1` [Example 180, Methyl 2-[(2-aminophenyl)carbamoyl]-6,7-dihydro[1,3]thiazolo[5,4-c]pyridine-5(4H)-carboxylate], the EC50 [1, 2] was 150 to 15000 nM, the EC50 [1, 3] was 251 to 15800 nM and the IC50 (A549 NSCLC cells) was no less than 0.2 µM.

`COc1ccc(OC(=O)N2CCc3nc(C(=O)Nc4ccccc4N)sc3C2)cc1` [Example 183, 4-methoxyphenyl 2-[(2-aminophenyl)carbamoyl]-6,7-dihydro[1,3]thiazolo[5,4-c]pyridine-5(4H)-carboxylate] showed an EC50 [1, 2] of 150 to 15000 nM, an EC50 [1, 3] of 251 to 15800 nM and an IC50 (A549 NSCLC cells) of no less than 0.2 µM.
